pIC50: −log10 of the molar value.
Target: T1, G Protein-Coupled Estrogen Receptor (GPER, GPR30) (Homo sapiens, UniProt Q99527)
T1 construct: gene GPER1; plasma membranes of HEK293 cells stably transfected with GPER
Assay: [3H]E2 competitive radioligand binding to plasma membranes of GPER-transfected HEK293 cells

T1 sequence (Q99527 whole entry): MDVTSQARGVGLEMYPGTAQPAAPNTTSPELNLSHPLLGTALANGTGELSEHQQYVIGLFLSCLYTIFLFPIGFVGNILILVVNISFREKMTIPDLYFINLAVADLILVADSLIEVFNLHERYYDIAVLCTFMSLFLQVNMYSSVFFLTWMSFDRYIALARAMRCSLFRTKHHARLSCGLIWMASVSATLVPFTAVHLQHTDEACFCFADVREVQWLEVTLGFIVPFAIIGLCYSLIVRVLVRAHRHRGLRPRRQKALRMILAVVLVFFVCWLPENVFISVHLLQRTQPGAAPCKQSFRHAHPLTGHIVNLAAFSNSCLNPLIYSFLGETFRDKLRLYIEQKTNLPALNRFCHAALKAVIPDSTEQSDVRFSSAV

C[C@@H](CO)CCC[C@@H](C)[C@H]1CC[C@H]2[C@@H]3CC=C4C[C@@H](O)CC[C@]4(C)[C@H]3CC[C@]12C [27HC, 27-hydroxycholesterol]
pIC50: 6.10 to 6.30
